Laboratory results reported in article PMC11510023, “A Novel Cold-Adapted Nitronate Monooxygenase from Psychrobacter sp. ANT206: Identification, Characterization and Degradation of 2-Nitropropane at Low Temperature” (Microorganisms, 2024).

System: T1, rPsNMO
T1 construct: gene psnmo; N-terminal His-tag, pET28a(+), E. coli BL21(DE3)
Test: nitrite release, colorimetric at […] nm; Lineweaver-Burk
Assay type: biochemical, Psychrobacter sp. ANT206
Conditions: 30 °C, pH 7.5 potassium phosphate, 6-12 mM 2-NP; substrate pre-equilibrated 24 h with equal KOH to give the anionic form (propane-2-nitronate)

## 2-NP
  Km: 10.3 mM
